Laboratory results as given in patent US8293495B2, “Blood-brain barrier model” (Wisconsin Alumni Research Foundation, priority 2006, dated 2012).
Where a name gives a salt, the structure may show the parent alone.

Columns and labels:
BMEC = BMEC treated with glucocorticoid; cited from earlier work
[1] = Fluorescein flux through BMEC monolayer co-cultured with differentiating NPC (in vitro BBB model); type: in vitro ADME, rat; details: rat; through the in vitro model, BMEC with NPC co-culture, 1 μM apical; read-out: permeability (Pe) (converted)
From the text: (§1) Many methods can be used to determine BBB permeability as well as uptake and efflux rates using an in vitro model. As an example, the rates for trans-BBB transport can be used to directly determine a pseudo steady-state permeability value (Pe) which is an estimate of in vivo permeability for a particular pharmaceutical compound, protein, or drug carrier. With the assumption that the concentration in the upper fluid compartment is static, and with a correction for the resistance provided by the membrane itself, the permeability can be readily determined for each test compound. Briefly, the transcytosis rate (Q) can be divided by the concentration of material added to the apical chamber (Ca) and the area of the membrane (Am) to yield a total permeability (Pt) that includes resistances due to the monolayer and the membrane (Pt=Q/[AmCa], or using clearance volume terminology Pt is equal to the slope of the clearance volume versus time line divided by the membrane area). Subsequently, Pe can be calculated by correcting for the resistance supplied by the cell free membrane (Pm) (1/Pe=1/Pt−1/Pm) (Bickel, U. How to measure drug transport across the blood-brain barrier. NeuroRx 2005, 2, 15-26.).
(§2) The permeability was assessed by determining the flux of fluorescein through the BMEC monolayer. Fluorescein sodium salt in DMEM was added to the apical filter compartment to produce a uniform initial concentration of 1 μM. Subsequently, 200 μl were removed from the basolateral compartment after 0, 15, 30, 45, and 60 min. The fluorescence was measured with the FLx800 fluorescence reader (Bio-Tek Instruments) and the rates of fluorescein accumulation in the lower compartment used to determine the permeability as described previously (Perriere et al. 2005).

BMEC monolayer = test: as above; type: in vitro ADME, rat
From the text: as §1, §2

rat BMEC = rat BMEC co-cultured with astrocytes; cited from earlier work
[2] = cited from earlier work

Papp A→B at 60 min, 1 μM [1] [×10⁻⁶ cm/s] | reduction of monolayer permeability by NPC co-culture (BMEC monolayer; BMEC with differentiating NPC vs BMEC without NPC, 24 h co-culture) [%] | permeability (Pe) (BMEC monolayer; through the in vitro model, BMEC with NPC co-culture, 1 μM apical) [cm/min] | SMILES | TEER (BMEC) | frayed junctions (BMEC) [% frayed] | fluorescein permeability (rat BMEC) [cm/min] | crossing of the BBB in vivo [2]
 |  |  | C[C@]12CCC(=O)C=C1CC[C@@H]1[C@@H]2[C@@H](O)C[C@@]2(C)[C@H]1CC[C@]2(O)C(=O)CO [hydrocortisone] | 218 Ω×cm^2 | 12 |  | 
 |  |  | C[C@]12C[C@H](O)[C@H]3[C@@H](CCC4=CC(=O)CC[C@@]43C)[C@@H]1CC[C@@H]2C(=O)CO [corticosterone] | 168 Ω×cm^2 | 21 |  | 
5.5 | 33 | 0.00033 | O=C1OC2(c3ccc(O)cc3Oc3cc(O)ccc32)c2ccccc21 [fluorescein, Fluorescein sodium salt] |  |  | 0.00027 | does not appreciably cross the BBB
